# Assays:
# [1] = system: K. pneumoniae ARC4420; assay: Chemostat in vitro infection model, dose fractionation; assay type: cell-based; settings: with CPD
# Experimental: (§1) The PK/PD driver of ETX1317 was assessed in the presence of CPD in both hollow-fiber[28]−[31] and chemostat[32]in vitro infection model systems. In all cases, CPD was administered q12h via a 2 h infusion and eliminated with a 2 h half-life, with the concentration of drug exceeding the MIC (the MIC of CPD in the presence of ETX1317 at a 1:2 ratio) for 50% of the dosing interval for each strain. Representative Emax plots are shown graphically for Escherichia coli ARC2687 in the hollow-fiber model and Klebsiella pneumoniae ARC4420 in the chemostat system (Figure 2). […] This could partially be attributed to the distribution of the concentration ranges utilized for the hollow-fiber infection model (HFIM) where most of the data scatter occurred in the efficacious dose range for lower MIC strains. It is important to note that initial evaluation of K. pneumoniae ARC4420 and ARC5118 was completed in the HFIM but rapid degradation of CPD, presumably through accumulation of β-lactamases in the extra-capillary space of the cartridge precluded a reliable assessment of the PK/PD driver with these strains in this model.[32] […] In both the HFIM and chemostat models the optimum critical threshold of ETX1317 was established through iterative Emax fitting of a range of ETX1317 concentrations from 0.5× to 2× the CPD:ETX1317 MIC value. In the HFIM, %Time > ETX1317 CT of 2× MIC provided the highest correlation to observed activity which appeared to be independent to the apparent intrinsic activity of ETX1317 (as reflected by ETX1317 MICBLI of K. pneumoniae ARC4486 vs ARC4488). […] In both models CPD infused alone mimicked vehicle control as expected with similar growth of +2 to 4 log10 CFU/mL.
# (§2) Enterobacteriaceae isolates E. coli ARC2687 and K. pneumoniae isolates ARC4486, ARC4488, ARC5118, and ARC4420 were prepared for infection from an overnight plate culture. On the day of the experiment, a few colonies of bacteria were inoculated in Mueller Hinton Broth II (MHBII, Sigma-Aldrich, St. Louis, MO) and incubated at 35 °C until reaching log-phase growth, about 1 h. In hollow-fiber studies cell population density is confirmed by turbidimetric assay (OD600) and final dilution is adjusted to deliver approximately 15 mL of bacteria (1 × 10^6 CFU/mL) to the extra-capillary space of the hollow-fiber cartridge (Fibercell Systems, Inc., Frederick, MD). After 1 h, targeted drug concentrations were introduced using a 2 h infusion via a syringe pump (Harvard Apparatus, Holliston, MA). […]
# (§3) Dose range and dose fractionation were performed in hollow-fiber infection model (HFIM) and chemostat (one-compartment) in vitro infection model. […] CPD concentrations were targeted to achieve exposure of ∼50%Time > MIC determined in the presence of ETX1317. […]
# [2] = system: K. pneumoniae ARC5118; assay: as above; assay type: cell-based; settings: with CPD
# Experimental: as §1, §2, §3
smiles,measurement,setting,value
CC1=C[C@@H](C(N)=O)N2C[C@@H]1N(O[C@H](F)C(=O)O)C2=O [ETX1317],%Time > CT of 1 μg/mL for 1–log10 kill,[1],63%
same,%Time > CT of 1 μg/mL for stasis,[1],59%
same,%Time > CT of 1 μg/mL for 1–log10 kill,[2],65%
same,%Time > CT of 1 μg/mL for stasis,[2],60%

# — publication PMC7297445, “Pharmacokinetic/Pharmacodynamic Determination and Preclinical Pharmacokinetics of the β-Lactamase Inhibitor ETX1317 and Its Orally Available Prodrug ETX0282” (ACS Infectious Diseases, 2020)
